Reference: the NIST ThermoML archive (doi:10.1021/je050003x)

Experiment: cn = amount concentration of the nth substance listed, in mol/dm3
Conditions: 101.3 kPa, Liquid, Open capillary

[Cl-].[Cl-].[Cl-].[Cr+3] [chromium chloride] + O
binary diffusion coefficient [m2/s]
Conditions | c1 = 0.005 | c1 = 0.008 | c1 = 0.01 | c1 = 0.02 | c1 = 0.03 | c1 = 0.05
298.15 K | 1.33e-09 | 1.2e-09 | 1.17e-09 | 1.1e-09 | 1.06e-09 | 1.03e-09
303.15 K | 1.85e-09 | 1.33e-09 | 1.31e-09 | 1.26e-09 | 1.2e-09 | 1.17e-09
